# From US9452154B2, “Methods for treating HCV” (Gilead Sciences, Inc., priority 2010, dated 2016)
# “And” between values parts separate entries of the source, which are not always exact repeats. Identical values can stand only once. Like-named read-outs stand apart in the source and are kept apart here.
# Key:
# [1] = test system: NS3 GT1b mutant replicons; assay type: cell-based, HCV
# [2] = test system: NS3 GT1a mutant replicons; assay type: cell-based, HCV
# GT-1b Huh-lunet cells = assay: Biological Example 4: antiviral combination studies with Compound 5 (MacSynergy II); assay type: cell-based, HCV; conditions: in combination with Compound 5, 1b replicon cells
# HCV 1b replicon system = assay: Biological Example 5: antiviral combination studies with Compound 6 (MacSynergy II); assay type: cell-based; conditions: in combination with Compound 6
# HCV genotype 1a replicon [3] = assay: Biological Example 3: antiviral combination studies with Compound 4 (MacSynergy II); conditions: in combination with Compound 4
# HCV genotype 1a replicon [4] = assay: Biological Example 3: HCV genotype 1a replicon assay, EC50; assay type: cell-based; conditions: Hepatitis C virus, 72 h, 3 days, read-out: EC50
# [5] = test system: Genotype 1b replicon cells; assay: Biological Example 6: compound concentration required to suppress replicon RNA by 1-1.5 log over 6 days (QRT-PCR); assay type: cell-based, HCV; conditions: 6 day assay
# Protocol: Flasks were incubated at 37° C., media and compounds were refreshed every two days. After 6 days of incubation the replicon cells were collected for RNA extraction and replicon RNA QRT-PCR analysis.
# [6] = test system: Huh-7 cells carrying a HCV genotype 1a replicon; assay: Biological Example 3: cytotoxicity in combination studies (MacSynergy II); conditions: in combination with Compound 4
# [7] = test system: Genotype 1b replicon cells; assay: Biological Example 6: compound combination replicon cure assay; conditions: after 6 days treatment, G418 for 14 days; Compound 6 4 pM, Compound 4 1000 nM, Compound 1 10 nM, Compound 3 26.25 nM
# [8] = Biological Example 3: cytotoxicity (calcein AM), CC50; assay type: cell-based; conditions: human, Huh-7 cells carrying a HCV genotype 1a replicon; HCV genotype 1a replicon cells; calcein AM
# [9] = Drug-drug interaction: exposure on co-administration with Compound 2
# HCV 1b RLuc = assay: microbe, parasite or virus in culture; assay type: cell-based; conditions: Hepatitis C virus, read-out: antiviral potency [EC50]
# Huh-luc replicon cells = assay: Biological Example 5: cellular cytotoxicity (CellTiter-Glo); conditions: highest concentrations tested (column Concentration(s)); relative to untreated controls
# Protocol: Replicon cells were seeded and treated with drugs as described for the antiviral combination studies above. After three day incubation at 37° C., the culture media was removed and cells were lysed and assayed for cytotoxicity using a CellTiter-Glo Luminescent Cell Viability Assay (Promega) according to the manufacturer's instructions. Relative Light Units were converted into percentages relative to the untreated controls (defined as 100%).
# [10] = test system: GT1b and GT1a mutant replicons; assay: Biological Example 8: summary of cross resistance of mutant replicons; assay type: cell-based, HCV; conditions: all single NS3 PI-resistant mutants
# [11] = mutant R155K + Y488H (first line, r20)
# [12] = mutant R155K + Y488H (second line, r26)
smiles,measurement,setting,value
CC[C@@H]1C[C@]1(NC(=O)[C@@H]1C[C@@H](Oc2cc(-c3csc(NC(C)C)n3)nc3c(Cl)c(OCCN4CCOCC4)ccc23)CC1C(=O)[C@@H](NC(=O)O[C@@H]1C[C@@H]2C[C@@H]2C1)C(C)(C)C)C(=O)O (some centres unmarked) [Compound 3],fold change in EC50 vs wild-type GT1b,[1]; mutant R155L,1.2 fold and 0.9 fold
same,fold change in EC50 vs wild-type GT1a,[2]; mutant A156T,>141 fold
same,fold change in EC50 vs wild-type GT1a,[2]; mutant D168A,>300 fold
same,fold change in EC50 vs wild-type GT1a,[2]; mutant D168E,25.1 fold
same,fold change in EC50 vs wild-type GT1a,[2]; mutant D168G,>138 fold
same,fold change in EC50 vs wild-type GT1a,[2]; mutant D168H,>250 fold
same,fold change in EC50 vs wild-type GT1a,[2]; mutant D168N,20.5 fold
same,fold change in EC50 vs wild-type GT1a,[2]; mutant D168V,>156 fold
same,fold change in EC50 vs wild-type GT1a,[2]; mutant D168Y,>175 fold
same,fold change in EC50 vs wild-type GT1a,[2]; mutant R155I,0.9 fold
same,fold change in EC50 vs wild-type GT1a,[2]; mutant R155K,>150 fold
same,fold change in EC50 vs wild-type GT1a,[2]; mutant R155K + L31M,>100 fold
same,fold change in EC50 vs wild-type GT1a,[2]; mutant R155K + L31M + Y448H,>145 fold
same,fold change in EC50 vs wild-type GT1a,[2]; mutant R155K + M28T,>100 fold
same,fold change in EC50 vs wild-type GT1a,[2]; mutant R155K + M28T + Y448H,89.0 fold
same,fold change in EC50 vs wild-type GT1a,[2]; mutant R155K + Q30H + Y448H,>130 fold
same,fold change in EC50 vs wild-type GT1a,[2]; mutant R155K + Q30R,>100 fold
same,fold change in EC50 vs wild-type GT1a,[2]; mutant R155K + Y93H,>100 fold
same,fold change in EC50 vs wild-type GT1a,[2]; [11],>130 fold
same,fold change in EC50 vs wild-type GT1a,[2]; [12],>100 fold
same,fold change in EC50 vs wild-type GT1a,[2]; mutant R155M,1.5 fold
same,fold change in EC50 vs wild-type GT1a,[2]; mutant R155S,4.0 fold
same,fold change in EC50 vs wild-type GT1a,[2]; mutant R155T,2.3 fold
same,fold change in EC50 vs wild-type GT1a,[2]; mutant R155W,32.1 fold
same,fold change in EC50 vs wild-type GT1a,[2]; mutant R155k + Q30H,>100 fold
same,Antagonism Volume,GT-1b Huh-lunet cells,−2 ± 2 nM^2
same,Interaction,GT-1b Huh-lunet cells,Additive
same,Synergy Volume,GT-1b Huh-lunet cells,19 ± 13 nM^2
same,Antagonism Volume,HCV 1b replicon system,−0.1 ± 0.2 nM^2
same,Interaction,HCV 1b replicon system,Strong Synergy
same,Synergy Volume,HCV 1b replicon system,132 nM^2 and 132 ± 44 nM^2
same,Antagonism Volume,HCV genotype 1a replicon [3],−3 ± 2 nM^2%
same,Synergy Volume,HCV genotype 1a replicon [3],26 ± 6 nM^2%
same,EC50,HCV genotype 1a replicon [4],49 ± 18 nM
same,Compound concentration able to induce replicon RNA 1-1.5 log drop,[5],26.25 nM
same,Antagonism Volume (cytotoxicity),[6],0 ± 0 nM^2%
same,Interaction (cytotoxicity),[6],Additivity (Additivity: ≦25 and >−25 nM^2%)
same,Synergy Volume (cytotoxicity),[6],3 ± 5 nM^2%
same,Uncured colony number,[7],989
same,CC50 at 3 days,[8],> 22200 nM
"COC(=O)N[C@H](C(=O)N1CC2(CC2)C[C@H]1c1ncc(-c2ccc3c(c2)C(F)(F)c2cc(-c4ccc5nc([C@@H]6[C@H]7CC[C@H](C7)N6C(=O)[C@@H](NC(=O)OC)C(C)C)[nH]c5c4)ccc2-3)[nH]1)C(C)C [Compound 6, (1-{3-[6-(9,9-Difluoro-7-{2-[5-(2-methoxycarbonylamino-3-methyl-butyryl)-5-aza-spiro[2.4]hept-6-yl]-3H-imidazol-4-yl}-9H-fluoren-2-yl)-1H-benzoimidazol-2-yl]-2-aza-bicyclo[2.2.1]heptane-2-carbonyl}-2-methyl-propyl)-carbamic acid methyl ester]",fold change in EC50 vs wild-type GT1b,[1]; mutant A156D,0.4 fold
same,fold change in EC50 vs wild-type GT1b,[1]; mutant A156G,0.9 fold
same,fold change in EC50 vs wild-type GT1b,[1]; mutant A156T,0.4 fold
same,fold change in EC50 vs wild-type GT1b,[1]; mutant A156V,0.4 fold
same,fold change in EC50 vs wild-type GT1b,[1]; mutant D168A,0.8 fold
same,fold change in EC50 vs wild-type GT1b,[1]; mutant D168E,1.0 fold
same,fold change in EC50 vs wild-type GT1b,[1]; mutant D168E + L31V + Y448H,>210 fold
same,fold change in EC50 vs wild-type GT1b,[1]; mutant D168E + Y93H + Y448H,>613 fold
same,fold change in EC50 vs wild-type GT1b,[1]; mutant D168E + Y448H,0.7 fold
same,fold change in EC50 vs wild-type GT1b,[1]; mutant D168G,0.6 fold
same,fold change in EC50 vs wild-type GT1b,[1]; mutant D168H,1.2 fold
same,fold change in EC50 vs wild-type GT1b,[1]; mutant D168H + C445F,0.3 fold
same,fold change in EC50 vs wild-type GT1b,[1]; mutant D168L + C445F,0.4 fold
same,fold change in EC50 vs wild-type GT1b,[1]; mutant D168N,0.9 fold
same,fold change in EC50 vs wild-type GT1b,[1]; mutant D168T,0.8 fold
same,fold change in EC50 vs wild-type GT1b,[1]; mutant D168V,0.9 fold
same,fold change in EC50 vs wild-type GT1b,[1]; mutant D168V + C445F,0.4 fold
same,fold change in EC50 vs wild-type GT1b,[1]; mutant D168V + L31V + Y448H,>126 fold
same,fold change in EC50 vs wild-type GT1b,[1]; mutant D168V + Y93H + Y448H,>664 fold
same,fold change in EC50 vs wild-type GT1b,[1]; mutant D168V + Y448H,0.5 fold
same,fold change in EC50 vs wild-type GT1b,[1]; mutant D168Y,0.7 fold
same,fold change in EC50 vs wild-type GT1b,[1]; mutant L31V + D168E,228.7 fold
same,fold change in EC50 vs wild-type GT1b,[1]; mutant L31V + D168V,117.5 fold
same,fold change in EC50 vs wild-type GT1b,[1]; mutant R155C,0.9 fold
same,fold change in EC50 vs wild-type GT1b,[1]; mutant R155G,0.7 fold
same,fold change in EC50 vs wild-type GT1b,[1]; mutant R155K,2.3 fold
same,fold change in EC50 vs wild-type GT1b,[1]; mutant R155L,0.7 fold
same,fold change in EC50 vs wild-type GT1b,[1]; mutant R155Q,0.7 fold
same,fold change in EC50 vs wild-type GT1b,[1]; mutant R155W,0.4 fold
same,fold change in EC50 vs wild-type GT1b,[1]; mutant Y93H + D168E,>570 fold
same,fold change in EC50 vs wild-type GT1b,[1]; mutant Y93H + D168V,>1140 fold
same,fold change in EC50 vs wild-type GT1a,[2]; mutant A156T,0.2 fold
same,fold change in EC50 vs wild-type GT1a,[2]; mutant D168A,1.1 fold
same,fold change in EC50 vs wild-type GT1a,[2]; mutant D168E,1.3 fold
same,fold change in EC50 vs wild-type GT1a,[2]; mutant D168G,0.8 fold
same,fold change in EC50 vs wild-type GT1a,[2]; mutant D168H,1.1 fold
same,fold change in EC50 vs wild-type GT1a,[2]; mutant D168N,1.2 fold
same,fold change in EC50 vs wild-type GT1a,[2]; mutant D168V,1.2 fold
same,fold change in EC50 vs wild-type GT1a,[2]; mutant D168Y,0.8 fold
same,fold change in EC50 vs wild-type GT1a,[2]; mutant R155I,0.5 fold
same,fold change in EC50 vs wild-type GT1a,[2]; mutant R155K,0.6 fold
same,fold change in EC50 vs wild-type GT1a,[2]; mutant R155K + L31M,96.9 fold
same,fold change in EC50 vs wild-type GT1a,[2]; mutant R155K + L31M + Y448H,>330 fold
same,fold change in EC50 vs wild-type GT1a,[2]; mutant R155K + M28T,12.3 fold
same,fold change in EC50 vs wild-type GT1a,[2]; mutant R155K + M28T + Y448H,53.0 fold
same,fold change in EC50 vs wild-type GT1a,[2]; mutant R155K + Q30H + Y448H,55.0 fold
same,fold change in EC50 vs wild-type GT1a,[2]; mutant R155K + Q30R,85.3 fold
same,fold change in EC50 vs wild-type GT1a,[2]; mutant R155K + Y93H,>3000 fold
same,fold change in EC50 vs wild-type GT1a,[2]; [11],1.1 fold
same,fold change in EC50 vs wild-type GT1a,[2]; [12],0.5 fold
same,fold change in EC50 vs wild-type GT1a,[2]; mutant R155M,0.3 fold
same,fold change in EC50 vs wild-type GT1a,[2]; mutant R155S,0.3 fold
same,fold change in EC50 vs wild-type GT1a,[2]; mutant R155T,0.3 fold
same,fold change in EC50 vs wild-type GT1a,[2]; mutant R155W,0.7 fold
same,fold change in EC50 vs wild-type GT1a,[2]; mutant R155k + Q30H,49.4 fold
same,Antagonism Volume,GT-1b Huh-lunet cells,0 ± 0 nM^2
same,Synergy Volume,GT-1b Huh-lunet cells,34 ± 19 nM^2
same,increase of exposure when combined with Compound 2,[9],approximately 5 ×
same,Antagonism Volume,HCV genotype 1a replicon [3],−7 ± 7 nM^2%
same,Interaction,HCV genotype 1a replicon [3],Additivity (Additivity: ≦25 and >−25 nM^2%)
same,Synergy Volume,HCV genotype 1a replicon [3],19 ± 17 nM^2%
same,EC50,HCV genotype 1a replicon [4],0.033 ± 0.011 nM
same,Compound concentration able to induce replicon RNA 1-1.5 log drop,[5],0.004 nM
same,EC50,HCV 1b RLuc,0.0045 nM
same,Cell Viability %,Huh-luc replicon cells,99 ± 1%
same,susceptibility of mutants,[10],full susceptibility
same,Antagonism Volume (cytotoxicity),[6],0 ± 0 nM^2%
same,Interaction (cytotoxicity),[6],Additivity (Additivity: ≦25 and >−25 nM^2%)
same,Synergy Volume (cytotoxicity),[6],8 ± 4 nM^2%
same,CC50 at 3 days,[8],> 44400 nM
